According to US20050164924A1, “Method and composition for treating skin wounds with epidermal growth factor” (priority 2002, published 2005):
Several values for one entry are separate records, joined by “and”; a condition that tells them apart may be missing. Equal entries are not always repeated.

Legend:
[1] = tested on: diabetic foot ulcer; assay: Randomized double-blind controlled trial of hEGF in diabetic foot ulcer healing; type: in vivo, human; settings: for 100% Healed Time, mean survival time: Kaplan Meier; for healing rate by the end of 12 weeks: topical daily
Protocol: A randomized double-blind controlled trial was conducted to study the efficacy of human epidermal growth factor hEGF) in promoting diabetic foot ulcer healing with 88 patients. Predetermined criteria were used for patient selection, they were; ulcer grade 1-2, ulcer located below the ankle, adequate perfusion as indicated by an ankle brachial-index of ≧0.7. Patients were excluded if: sugar control was very poor (HbAlc≧12%), or had severe grade ulcers (≧3). Initial assessment and standard wound care and debridement was given as in an ordinary diabetic foot clinic. The patients were reviewed two weeks later. In the second consultation, patients whose ulcer healed more than 25% with conventional foot ulcer care were excluded. Informed consent was obtained from the remaining patients and randomization was done by drawing envelopes, although the patients were blind to the concentrations of hEGF during the experiments. The final candidates were randomly assigned into three groups: • 1. Group 1 were treated with Acetovegin® 5% cream alone, which has the following compositions as indicated in the package of the cream: 1 g of cream contains 2 mg (corresponding to dry mass) of deproteinized hemoderivative of calf blood, and 0.2 mg of benzalkonium chloride. There was no particular reason in choosing Acetovegin® 5% cream as the control other than this cream was available at the clinic where the experiments were conducted. • 2. Group 2 patients were treated with Acetovegin® 5% cream (with composition as stated above) plus 0.02% (g/g) hEGF. • 3. Group 3 patients were treated with Acetovegin® 5% cream (with composition as stated above) plus 0.04% (g/g) hEGF. All patients were followed up on a biweekly bass for wound care and debridement and trimming of keratosis. Antibiotic would be given if it was infected as indicated by purulent discharge or by positive bacterial culture. Photos of the wound's size were being taken for computer measurement and comparing with a reference area having a known size. Local application of study cream was applied and covered with sterile gauze. Patients were instructed to have daily normal saline dressing and local application of cream in the government out-patient-clinic or community nurse would be asked to have home visit for those with ambulatory problem. Wound parameters, such as exudates sign of infection granulation tissue and eschar were documented in each visit and complete healing was defined as full epithelialization of the wound with absence of discharge. Analysis was based on intention to treat and Kaplan Meier survival analysis was employed to compare the healing rate between different groups. One way ANOVA was used for clinical parameters analysis. If more than one wound was present in one patient the total areas of the ulcers was taken together and treated as one single wound. Of the 30 patients that suffered from unhealed ulcers they were randomly assigned into 3 groups as stated above: Group-1 (9/30), the control, was treated with Acetovegin® 5% cream alone; Group-2 (9/30) was treated with Acetovegin® 5% cream plus 0.02% (g/g) hEGF; Group-3, (14/32) Acetovegin® 5% cream plus 0.04% (g/g) hEGF. The end point of a treatment was defined as complete closure of the wound, whereas failure to heal was defined as incomplete healing after 12 weeks of treatment. The experiment in Example 1 was repeated using Acetovegin® 5% cream plus 0.03% (g/g) hEGF. 8 patients, named Group-4, were treated.

[2] = tested on: diabetes ulcers; assay: Individuals suffering from prolonged diabetes ulcers treated with 0.04% hEGF composition; type: in vivo, human; settings: 0.04% (g/g) hEGF
Protocol: Three patients suffering from prolonged diabetes ulcers were treated with the composition of this invention containing 0.04% (g/g) hEGF. The following results were observed, with all of the patients were healed after as short as four weeks treatment: […]

[3] = tested on: right facial non-healing ulcer; assay: Individual suffering from prolonged unhealed surgical wound; type: in vivo, human; settings: Patient D
From the text: Patient D was admitted for investigation of right facial non-healing ulcer after extraction of right mandibular molars and excision of facial fistula eleven months ago. […] There was sloughing of the right mandibular alveolus and the wound was tender. […] However, “definitively negative finding for malignancy nor basal cell carcinoma, quite normal looking oral epithelial mucosa” was reported by a pathologist. […] Patient was reviewed after two weeks of hEGF (0.04% (g/g)) local application. The composition is the same as that used in the above Group-3 patients. The right facial wound was healing, base of the wound looked fleshy with no discharge. The wound area decreased in size by about 30%.

[4] = tested on: bedsore; assay: Individual suffering from bedsore; type: in vivo, human; settings: 0.04% (g/g) EGF daily with normal saline dressing, after three-month treatment
Protocol: Patient B was bedridden at aged home for several years. […] They were referred to medical because the wound got worse with central grangrene after a two-month treatment.
They were then treated with Hibitane dressing for two weeks then normal saline dressing with the composition of this invention containing 0.04% (g/g) EGF daily.

[5] = tested on: burns; assay: Treating burns with EGF; type: in vivo; settings: 0.001% (g) of EGF
[6] = tested on: corneal and burn wounds; settings: EGF 10 μg/ml; cited from earlier work
[7] = tested on: venous stasis ulcers; settings: EGF 10 μg/ml; cited from earlier work
[8] = Patient A, after 2 weeks treatment
[9] = Patient A, after 3 weeks treatment
[10] = Patient B, after 3 weeks treatment
[11] = Patient B, after 5 weeks treatment
[12] = Patient B, after 9 weeks treatment
[13] = Patient C, after 4 weeks treatment
[14] = Patient C, after 6 weeks treatment

Substance: human epidermal growth factor [hEGF]
- total healing outcome ([1]; 0.02% (g/g) EGF): may fail to achieve totally healing in some cases
- reduction of the time required to achieve 50% healing ([1]; 0.02% (g/g) or 0.04% (g/g) EGF): 2-4 weeks
- results compared with 0.04% (g/g) EGF ([1]; 0.03% (g/g) EGF): almost indistinguishable
- total healing outcome ([1]; 0.04% (g/g) EGF): all of the patients were totally healed after 12 wee
- 50% Healed Time, mean survival time ([1]; Group-2, 0.02% (g/g) hEGF): 5.71±1.02 weeks and 5.71 weeks
- 50% Healed Time, median survival time ([1]; Group-2, 0.02% (g/g) hEGF): 6.00 weeks
- 100% Healed Time, mean survival time ([1]; Group-2, 0.02% (g/g) hEGF): 9.43±1.38 weeks and 9.43 weeks
- 100% Healed Time, median survival time ([1]; Group-2, 0.02% (g/g) hEGF, limited to 12 weeks): 12.00 weeks
- healing rate by the end of 12 weeks ([1]; Group-2: Acetovegin 5% cream plus 0.02% (g/g) hEGF): 55%
- 50% Healed Time, mean survival time ([1]; Group-3, 0.04% (g/g) hEGF): 4.50±0.82 weeks and 4.50 weeks
- 50% Healed Time, median survival time ([1]; Group-3, 0.04% (g/g) hEGF): 4.00 weeks
- 100% Healed Time, median survival time ([1]; Group-3, 0.04% (g/g) hEGF): 6.00 weeks
- 100% Healed Time, mean survival time ([1]; Group-3, 0.04% (g/g) hEGF): 6.67 weeks
- healing rate by the end of 12 weeks ([1]; Group-3: Acetovegin 5% cream plus 0.04% (g/g) hEGF): 100%
- 100% healing time, median survival time ([1]; Group-4, 0.03% (g/g) hEGF): 6 weeks
- Cumulative Survival (unhealed fraction) ([1]; Group-4, 0.03% (g/g) hEGF, 2 weeks): 0.8750
- Cumulative Survival (unhealed fraction) ([1]; Group-4, 0.03% (g/g) hEGF, 4 weeks): 0.6250
- Cumulative Survival (unhealed fraction) ([1]; Group-4, 0.03% (g/g) hEGF, 6 weeks): 0.5000
- Cumulative Survival (unhealed fraction) ([1]; Group-4, 0.03% (g/g) hEGF, 8 weeks): 0.3750
- Cumulative Survival (unhealed fraction) ([1]; Group-4, 0.03% (g/g) hEGF, 10 weeks): 0.2500
- Cumulative Survival (unhealed fraction) ([1]; Group-4, 0.03% (g/g) hEGF, 12 weeks): 0.1250
- 100% healing time, mean survival time (limited to 12) ([1]; Group-4, Acetovegin 5% cream plus 0.03% (g/g) hEGF): 7 weeks
- Healing Rate [2, 8]: 36.25%
- Ulcer Area [2, 8]: 1.02 cm^2
- Healing Rate [2, 9]: 100%
- Ulcer Area [2, 9]: 0 cm^2
- Healing Rate [2, 10]: 43.18%
- Ulcer Area [2, 10]: 3.79 cm^2
- Healing Rate [2, 11]: 75.71%
- Ulcer Area [2, 11]: 1.62 cm^2
- Healing Rate [2, 12]: 97.60%
- Ulcer Area [2, 12]: 0.16 cm^2
- Healing Rate [2, 13]: 89.34%
- Ulcer Area [2, 13]: 1.41 cm^2
- Healing Rate [2, 14]: 100%
- Ulcer Area [2, 14]: 0 cm^2
- decrease of wound area in size ([3]; 0.04% (g/g) hEGF local application, after two weeks): about 30%
- reduction of wound in size ([3]; 0.04% hEGF applied locally, after 5 weeks): approximately 50%
- wound outcome [4]: healed and completely closed
- effect on wound healing of burns [5]: effective in accelerating wound healing
- healing of corneal and burn wounds [6]: promote healing
- epithelization in wounds of patients with venous stasis ulcers [7]: failed to promote epithelization
